Experiments:
[1] = system: stored RBCs; test: 2,3-DPG level of stored RBCs after incubation with storage and/or rejuvenating composition (Roche 2,3-DPG kit); assay type: cell-based; conditions: 60 minutes at 37° C.
Experimental: A storage and/or rejuvenating composition that includes D-ribose, inosine, sodium pyruvate, and inorganic phosphate, all at a 300 mM concentration as a slurry was prepared. When used to store and/or rejuvenate RBCs, the slurry is diluted 30-fold to a final concentration of 10 mM to form a solution. […] In a study, RBCs were collected and stored for an average of 21 days at 4° C. according to standard blood banking practice. Various RBC storage and/or rejuvenating compositions were added to the 21-day old stored RBCs and held at 37° C. for one to four hours before being tested for 2,3-DPG concentrations. […] A normal 2,3-DPG concentration of RBC immediately upon harvest is 4.0 μmol/ml. […] An increase to 1.0 μmol/ml is considered a significant improvement.
Experimental protocols were designed to find methods to increase the solubility of inosine. […] A storage and/or rejuvenating composition including 300 mM each of inosine, L-arginine, sodium pyruvate, D-ribose, and inorganic phosphate was diluted 30-fold into 21-day old stored RBCs. One set of stored blood samples was incubated for 60 minutes at room temperature and another was incubated for 60 minutes at 37° C.

[2] = Solubility of nucleoside in the composition; assay type: physicochemical; conditions: equimolecular solution with L-arginine, room temperature

Nc1nc2c(ncn2[C@@H]2O[C@H](CO)[C@@H](O)[C@H]2O)c(=O)[nH]1 [Guanosine]
Rejuvenation ([1]; guanosine with 10 mM each inorganic phosphate and D-ribose, no sodium pyruvate): observed

OC[C@H]1O[C@@H](n2cnc3c(O)ncnc32)[C@H](O)[C@@H]1O [inosine]
concentration at which inosine remained in solution [2]: above 50 mM

O=C[C@H](O)[C@H](O)[C@H](O)COP(=O)(O)O [ribose-5-phosphate]
Rejuvenation ([1]; inosine replaced by varying concentrations of the substance in composition with 10 mM each D-ribose, sodium pyruvate, inorganic phosphate): not observed
